Laboratory results taken from patent US20160046618A1, “Cyclopropyl Fused Thiazin-2-Amine Compounds as Beta-Secretase Inhibitors and Methods of Use” (AMGEN INC., priority 2014, published 2016).
Where two headings read alike, the source gives them in different places.

Tests used:
[1] = test system: Aβ40 in conditioned medium of cells stably expressing Amyloid Precursor Protein (APP); assay: In vitro BACE-1 cell-based assay (Aβ40 sandwich ELISA); conditions: read-out: IC50 IP (μM) BACE1 cell
Description: In Vitro BACE-1 Cell-Based Assay
The cell-based assay measures inhibition or reduction of Aβ40 in conditioned medium of test compound treated cells expressing amyloid precursor protein. Cells stably expressing Amyloid Precursor Protein (APP) were plated at a density of 40K cells/well in 96 well plates (Costar). The cells were cultivated for 24 hours at 37° C. and 5% CO2 in DMEM supplemented with 10% FBS. The test compounds were then added to cells in 10-point dose response concentrations with the starting concentration being either 100 μM or 10 μM. The compounds were diluted from stock solutions in DMSO and the final DMSO concentration of the test compounds on cells was 0.1%. After 24 h of incubation with the test compounds the supernatant conditioned media was collected and the Aβ40 levels were determined using a sandwich ELISA. The IC50 of the compound was calculated from the percent of control or percent inhibition of Aβ40 as a function of the concentration of the test compound.
The sandwich ELISA to detect Aβ40 was performed in 96 well microtiter plates, which were pre-treated with goat anti-rabbit IgG (Pierce). The capture and detecting antibody pair that were used to detect Aβ40 from cell supernatants were affinity purified pAb40 (Biosource) and biotinylated 6E10 (Signet Labs Inc.), respectively. The optimal concentration for the pAb40 antibody was 3 μg/ml in Superblock/TBS (Pierce) that was supplemented with 0.05% Tween 20 (Sigma). […] Cellular supernatants were incubated with the capture antibody for 3 h at 4° C., followed by 3 wash steps in TBS-tween (0.05%). The detecting antibody incubation was for 2 h at 4° C., again followed by the wash steps as described previously. The final readout of the ELISA is Time-Resolved Fluorescence (counts per minute) using Delfia reagents Streptavidin-Europium and Enhancement solutions (Perkin Elmer) and the Victor 2 multilabel counter (Perkin Elmer).

human recombinant BACE1 = human recombinant BACE1 (Homo sapiens (Human), UniProt P56817); assay: In vitro enzymatic BACE1 FRET assay; assay type: biochemical; conditions: BACE1 FRET enzyme assay; read-out: IC50 IP (μM) BACE1 enzyme
human recombinant BACE1, sequence (P56817 46-501): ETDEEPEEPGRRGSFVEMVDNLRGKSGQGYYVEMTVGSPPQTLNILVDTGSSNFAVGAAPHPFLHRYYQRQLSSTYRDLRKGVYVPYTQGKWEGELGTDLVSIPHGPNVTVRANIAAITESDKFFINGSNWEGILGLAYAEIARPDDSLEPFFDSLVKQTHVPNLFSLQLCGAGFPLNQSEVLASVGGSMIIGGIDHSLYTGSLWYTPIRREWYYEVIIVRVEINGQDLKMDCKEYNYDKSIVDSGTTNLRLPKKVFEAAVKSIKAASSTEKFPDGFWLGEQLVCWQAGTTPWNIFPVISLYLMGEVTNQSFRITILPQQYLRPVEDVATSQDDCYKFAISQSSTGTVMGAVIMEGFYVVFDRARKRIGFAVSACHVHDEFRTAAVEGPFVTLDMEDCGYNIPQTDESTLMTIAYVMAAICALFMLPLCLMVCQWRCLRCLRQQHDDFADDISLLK
Description: These recombinant proteins were further purified using Ni-NTA affinity chromatography (Qiagen). […] This assay is effectively started by the addition of FRET substrate (50 nM) and the combination is incubated for one hour. The FRET assay is terminated by addition of Tris buffer, which raises the pH to neutrality, and the fluorescence is determined. The FRET substrate is a peptide with commercially available fluorophore and quencher, on opposite sides of the BACE cleavage site. Proteolytic cleavage of the FRET substrate releases quenching of fluorescence (excitation 488 nm and emission 590 nm).

Recombinant Cat D = Recombinant Cat D (Homo sapiens (Human), UniProt P07339); assay: In vitro enzymatic Cathepsin D (Cat D) FRET assay; assay type: biochemical; conditions: read-out: IC50 IP (μM) CatD
Recombinant Cat D, sequence (P07339 65-412): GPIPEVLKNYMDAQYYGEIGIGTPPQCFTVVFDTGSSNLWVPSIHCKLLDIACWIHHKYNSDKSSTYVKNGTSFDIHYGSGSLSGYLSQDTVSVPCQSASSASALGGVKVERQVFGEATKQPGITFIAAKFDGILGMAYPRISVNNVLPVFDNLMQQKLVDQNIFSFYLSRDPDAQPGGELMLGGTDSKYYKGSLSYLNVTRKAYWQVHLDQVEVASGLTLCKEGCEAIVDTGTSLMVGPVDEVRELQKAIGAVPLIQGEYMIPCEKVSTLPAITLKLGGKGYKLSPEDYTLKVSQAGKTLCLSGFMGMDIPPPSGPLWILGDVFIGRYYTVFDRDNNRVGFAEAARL
Description: In Vitro Enzymatic Cathepsin D (Cat D) FRET (Fluorescence Resonance Energy Transfer) Assay
Recombinant Cat D was expressed in CHO cells. The assay buffer for CathepsinD is 0.05 M citrate pH 3.5, 10% DMSO final, 5 mM CHAPS. […] The assays are effectively started by the addition of different FRET substrates (20 nM for Cat D) and the combination is incubated for one hour. The FRET assay is terminated with by addition of Tris buffer, which raises the pH to neutrality, and the fluorescence is determined. The FRET substrate is a peptide with commercially available fluorophore and quencher, on opposite sides of the BACE cleavage site. The Cat D substrate peptide sequence is based on sequence #1 of Table 1 from Gulnik et al. FEBS Letters v413 p 379-384 1997. Proteolytic cleavage of the FRET substrate releases quenching of fluorescence (Cat D excitation 500 nm and emission 580 nm).

SMILES	IC50 [1]	IC50 ([1]; BACE1 cell-based assay)	IC50 (human recombinant BACE1)	IC50 (Recombinant Cat D; Cathepsin D FRET enzyme assay)	IC50 (Recombinant Cat D)
COc1cnc(C(=O)Nc2cc(F)c(F)c([C@@]3(CF)N=C(N)S[C@H]4C[C@H]43)c2)cn1 [Example 16, N-(3-((1S,5S,6S)-3-amino-5-(fluoromethyl)-2-thia-4-azabicyclo[4.1.0]hept-3-en-5-yl)-4,5-difluorophenyl)-5-methoxy-2-pyrazinecarboxamide]	–	0.00908 µM	0.0145 µM	875 µM	–
COc1cnc(C(=O)Nc2cc(F)c(F)c([C@@]3(C)N=C(N)S[C@H]4C[C@H]43)c2)cn1 [Example 7, N-(3-((1S,5S,6S)-3-amino-5-methyl-2-thia-4-azabicyclo[4.1.0]hept-3-en-5-yl)-4,5-difluorophenyl)-5-methoxy-2-pyrazinecarboxamide]	–	0.00636 µM	0.0141 µM	719 µM	–
Cc1cc(OC(F)F)cnc1C(=O)Nc1cc(F)c(F)c([C@@]2(C)N=C(N)S[C@H]3C[C@H]32)c1 [Example 15, N-(3-((1S,5S,6S)-3-amino-5-methyl-2-thia-4-azabicyclo[4.1.0]hept-3-en-5-yl)-4,5-difluorophenyl)-5-(difluoromethoxy)-3-methyl-2-pyridinecarboxamide]	–	0.00994 µM	0.0124 µM	506 µM	–
COC[C@]12C[C@H]1[C@@](C)(c1cc(Nc3nccc4cc(Cl)cnc34)cc(F)c1F)N=C(N)S2 [Example 24, N-(3-((1S,5S,6S)-3-amino-1-(methoxymethyl)-5-methyl-2-thia-4-azabicyclo[4.1.0]hept-3-en-5-yl)-4,5-difluorophenyl)-3-chloro-1,7-naphthyridin-8-amine]	–	0.0191 µM	0.00188 µM	189 µM	–
Cc1cc(C#N)cnc1C(=O)Nc1cc(F)c(F)c([C@@]2(C)N=C(N)S[C@H]3C[C@H]32)c1 [Example 19, N-(3-((1S,5S,6S)-3-amino-5-methyl-2-thia-4-azabicyclo[4.1.0]hept-3-en-5-yl)-4,5-difluorophenyl)-5-cyano-3-methyl-2-pyridinecarboxamide]	–	0.00431 µM	0.00545 µM	669 µM	–
Cc1cc(Cl)cnc1C(=O)Nc1cc(F)c(F)c([C@@]2(C)N=C(N)S[C@H]3C[C@H]32)c1 [Example 8, N-(3-((1S,5S,6S)-3-amino-5-methyl-2-thia-4-azabicyclo[4.1.0]hept-3-en-5-yl)-4,5-difluorophenyl)-5-chloro-3-methyl-2-pyridinecarboxamide]	–	0.0563 µM	0.00528 µM	418 µM	–
C[C@]1(c2cc(NC(=O)c3ccc(C#N)cn3)cc(F)c2F)N=C(N)S[C@H]2C[C@H]21 [Example 14, N-(3-((1S,5S,6S)-3-amino-5-methyl-2-thia-4-azabicyclo[4.1.0]hept-3-en-5-yl)-4,5-difluorophenyl)-5-cyano-2-pyridinecarboxamide]	–	0.00569 µM	0.0109 µM	797 µM	–
CCOC(=O)[C@]12C[C@H]1[C@@](C)(c1cc(NC(=O)c3ccc(Cl)cn3)cc(F)c1F)N=C(N)S2 [Example 9, (1S,5S,6S)-ethyl 3-amino-5-(5-(5-chloropicolinamido)-2,3-difluorophenyl)-5-methyl-2-thia-4-azabicyclo[4.1.0]hept-3-ene-1-carboxylate]	–	0.0232 µM	0.00679 µM	366 µM	–
NC1=N[C@](CF)(c2cc(Nc3ncnc4cc(Cl)cnc34)cc(F)c2F)[C@@H]2C[C@@H]2S1 [Example 22, (1S,5S,6S)-5-(5-((7-Chloropyrido[3,2-d]pyrimidin-4-yl)amino)-2,3-difluorophenyl)-5-(fluoromethyl)-2-thia-4-azabicyclo[4.1.0]hept-3-en-3-amine]	–	0.0533 µM	0.0149 µM	331 µM	–
C[C@]1(c2cc(NC(=O)c3ccc(Cl)cn3)cc(F)c2F)N=C(N)S[C@@]2(C(=O)O)C[C@H]21 [Example 899, Lithium (1S,5S,6S)-3-amino-5-(5-(5-chloropicolinamido)-2,3-difluorophenyl)-5-methyl-2-thia-4-azabicyclo[4.1.0]hept-3-ene-1-carboxylate]	2.45 µM	–	–	–	–

Further lines, results first:

IC50 [1]	IC50 ([1]; BACE1 cell-based assay)	IC50 (human recombinant BACE1)	IC50 (Recombinant Cat D; Cathepsin D FRET enzyme assay)	IC50 (Recombinant Cat D)	SMILES
0.0329 µM	–	–	–	–	C#C[C@H](C)Oc1cnc(C(=O)Nc2cc(F)c(F)c([C@@]3(C)N=C(N)S[C@@]4(CF)C[C@H]43)c2)c(C)n1 [Example 616, N-(3-((1S,5S,6S)-3-amino-1-(fluoromethyl)-5-methyl-2-thia-4-azabicyclo[4.1.0]hept-3-en-5-yl)-4,5-difluorophenyl)-3-methyl-5-(((1S)-1-methyl-2-propyn-1-yl)oxy)-2-pyrazinecarboxamide]
0.222 µM	–	–	–	–	C#C[C@H](C)Oc1cnc(C(=O)Nc2ccc(F)c([C@@]3(C)N=C(N)S[C@@]4(C(F)F)C[C@@H]34)c2)c(C)c1 [Example 648, N-(3-((1S,5S,6S)-3-amino-1-(difluoromethyl)-5-methyl-2-thia-4-azabicyclo[4.1.0]hept-3-en-5-yl)-4-fluorophenyl)-3-methyl-5-(((1S)-1-methyl-2-propyn-1-yl)oxy)-2-pyridinecarboxamide]
–	0.013 µM	0.0235 µM	33.5 µM	–	N#Cc1cnc2c(Nc3cc(F)c(F)c([C@@]4(CF)N=C(N)S[C@@H]5C[C@@H]54)c3)nccc2c1 [Example 27, 8-((3-((1R,5S,6R)-3-amino-5-(fluoromethyl)-2-thia-4-azabicyclo[4.1.0]hept-3-en-5-yl)-4,5-difluorophenyl)amino)-1,7-naphthyridine-3-carbonitrile]
0.00616 µM	–	–	–	–	NC1=N[C@](CF)(c2cc(Nc3nccc4nc(OCc5ncco5)cnc34)ccc2F)[C@@H]2C[C@]2(c2c[nH]nn2)S1 [Example 957, N-(3-((1S,5S,6S)-3-amino-5-(fluoromethyl)-1-(1H-1,2,3-triazol-4-yl)-2-thia-4-azabicyclo[4.1.0]hept-3-en-5-yl)-4-fluorophenyl)-2-(1,3-oxazol-2-ylmethoxy)pyrido[3,4-b]pyrazin-5-amine]
0.000378 µM	–	–	–	–	C#CCOc1cnc(C(=O)Nc2ccc(F)c([C@@]3(C)N=C(N)S[C@@]4(CF)C[C@H]43)c2)cn1 [Example 822, N-(3-((1S,5S,6S)-3-amino-1-(fluoromethyl)-5-methyl-2-thia-4-azabicyclo[4.1.0]hept-3-en-5-yl)-4-fluorophenyl)-5-(2-propyn-1-yloxy)-2-pyrazinecarboxamide]
0.0438 µM	–	–	–	–	C#C[C@H](C)Oc1cnc(C(=O)Nc2cc(F)c(F)c([C@@]3(C)N=C(N)S[C@@]4(COC)C[C@H]43)c2)c(C)n1 [Example 622, N-(3-((1S,5S,6S)-3-amino-1-(methoxymethyl)-5-methyl-2-thia-4-azabicyclo[4.1.0]hept-3-en-5-yl)-4,5-difluorophenyl)-3-methyl-5-(((1S)-1-methyl-2-propyn-1-yl)oxy)-2-pyrazinecarboxamide]
–	–	–	–	1300 µM	CCOc1cnc(C(=O)Nc2cc(F)c(F)c([C@@]3(C)N=C(N)S[C@@]4(COC)C[C@H]43)c2)cn1 [Example 1038, N-(3-((1S,5S,6S)-3-amino-1-(methoxymethyl)-5-methyl-2-thia-4-azabicyclo[4.1.0]hept-3-en-5-yl)-4,5-difluorophenyl)-5-ethoxy-2-pyrazinecarboxamide]
0.1 µM	–	–	–	–	C=CC(C)Oc1cnc(C(=O)Nc2ccc(F)c([C@@]3(C)N=C(N)S[C@@]4(COC)C[C@H]43)c2)cn1 (stereo partly drawn) [Example 1063, N-(3-((1S,5S,6S)-3-amino-1-(methoxymethyl)-5-methyl-2-thia-4-azabicyclo[4.1.0]hept-3-en-5-yl)-4-fluorophenyl)-5-(but-3-en-2-yloxy)pyrazine-2-carboxamide]
0.0006 µM	–	–	–	–	[2H]C([2H])(C#C)Oc1cnc(C(=O)Nc2cc(F)c(F)c([C@@]3(C)N=C(N)S[C@@]4(COC)C[C@H]43)c2)cn1 [Example 840]
